In patent publication US7932279B2 (ArQule, Inc., priority 2007, dated 2011):

Molecular target: T1, HSP90α (Homo sapiens, UniProt P07900)
T1 construct: purchased Stressgen Lot B506492
Experiment: HSP90 binding assay (fluorescent ELISA, competition with biotinylated Geldanamycin)
Conditions: reported as range of IC50's
Protocol: The biochemical assay is described as follows.
Purified HSP90α […] was purchased from Stressgen Lot B506492. Single use aliquots of the 1.15 mg/ml stock were prepared and stored at −80° C. to avoid multiple freeze-thaw cycles.
A Nunc Maxisorb plate was coated overnight at 4° C. with 200 ng of HSP90/well dissolved in DPBS. The following day the plates were washed with TBST and blocked for 2 h at room temperature with blocking buffer (20 mM HEPES pH 7.3, 1 mM EDTA, 5 mM MgCl2, 100 mM KCl, 5% BSA). Blocking buffer was removed by washing plates with TBST, and test compounds dissolved in assay buffer (20 mM HEPES pH 7.3, 1 mM EDTA, 5 mM MgCl2, 100 mM KCl, 1% BSA) were added to plate. […] The reaction is incubated for 60 minutes at room temperature. […] Competitive inhibitory compounds will block this interaction from occurring.
The reactions were stopped by washing the plate with TBST. The binding of the bio-GM is detected by the addition of an Alkaline Phosphatase tagged Streptavidin molecule. A TBST wash eliminates any unbound detection agent, and the Alkaline Phosphate substrate Attophos is introduced. This substrate generates a fluorescent signal at […] when excited at […]. These plates can be monitored on either a Victor 5 or Perkin Elmer Envision multilabel reader.

Molecule | IC50 [µM]
COc1ccc(C(C)C)cc1-c1cc(-c2nnnn2C2CCNCC2)c(O)cc1O [Compound 41] | 1 to 10
COCCn1nnnc1-c1cc(-c2cc(C(C)C)ccc2OC)c(O)cc1O [Compound 9] | 1 to 10
CCCCn1nnnc1-c1cc(-c2cccc(C(=O)N3CCC(N4CCCC4)CC3)c2)c(O)cc1O [Compound 49, [5′-(1-Butyl-1H-tetrazol-5-yl)-2′,4′-dihydroxy-biphenyl-3-yl]-(4-pyrrolidin-1-yl-piperidin-1-yl)-methanone] | > 50
COCCCn1nnnc1-c1cc(-c2cccc(C(=O)OC)c2)c(O)cc1O [Compound 21] | 10 to 50
COc1ccc(C(C)C)cc1-c1cc(-c2nnnn2-c2ccccc2)c(O)cc1O [Compound 120] | < 1
COCCCn1nnnc1-c1cc(-c2cccc(C(=O)NC(C)CN(C)C)c2)c(O)cc1O (centres unmarked) [Compound 70, 2′,4′-Dihydroxy-5′-[1-(3-methoxy-propyl)-1H-tetrazol-5-yl]-biphenyl-3-carboxylic acid (2-dimethylamino-1-methyl-ethyl)-amide] | > 50
CCCCn1nnnc1-c1cc(-c2cccc(C(=O)N3CCN(CC)CC3)c2)c(O)cc1O [Compound 50] | > 50
4-[1-(3-Methoxy-propyl)-1H-tetrazol-5-yl]-6-naphthalen-2-yl-benzene-1,3-diol [Compound 78] | 10 to 50
CCC(C)CN(CCO)C(=O)c1cccc(-c2cc(-c3nnnn3CCCOC)c(O)cc2O)c1 (centres unmarked) [Compound 71] | > 50
COCCCn1nnnc1-c1cc(Br)c(O)cc1O [Compound 25] | > 50
5-[1-(3,3-Dimethyl-butyl)-1H-tetrazol-5-yl]-5′-isopropyl-2′-methoxy-biphenyl-2,4-diol [Compound 96] | 1 to 10
COCCCn1nnnc1-c1cc(-c2cccc(C(=O)O)c2)c(O)cc1O [Compound 47] | > 50
CCCCn1nnnc1-c1cc(-c2cccc(C(=O)N(CCO)CC(C)CC)c2)c(O)cc1O (centres unmarked) [Compound 61] | > 50
COCCCn1nnnc1-c1cc(-c2cccc(C(=O)N3CCN(CC4CCN(C)CC4)CC3)c2)c(O)cc1O [Compound 69] | > 50
CCCCn1nnnc1-c1cc(-c2cccc(C(=O)O)c2)c(O)cc1O [Compound 46] | > 50
COCCCn1nnnc1-c1cc(-c2cccc(C(=O)NC(C)COC)c2)c(O)cc1O (centres unmarked) [Compound 62] | > 50
COCCCn1nnnc1-c1cc(-c2cccc(C(C)C)c2)c(O)cc1O [Compound 76, 3′-Isopropyl-5-[1-(3-methoxy-propyl)-1H-tetrazol-5-yl]-biphenyl-2,4-diol] | 10 to 50
COCCCn1nnnc1-c1cc(-c2cccc(C(=O)NCCCN3CCOCC3)c2)c(O)cc1O [Compound 67, 2′,4′-Dihydroxy-5′-[1-(3-methoxy-propyl)-1H-tetrazol-5-yl]-biphenyl-3-carboxylic Acid (3-morpholin-4-yl-propyl)-amide] | > 50
COc1ccc(C(C)C)cc1-c1cc(-c2nnnn2C2CCN(C(=O)CC(C)C)CC2)c(O)cc1O [Compound 40, 1-{4-[5-(4,6-Dihydroxy-5′-isopropyl-2′-methoxy-biphenyl-3-yl)-tetrazol-1yl]-piperidin-1-yl}-3-methyl-butan-1-one] | 10 to 50
COCCCn1nnnc1-c1cc(-c2ccc(C(F)(F)F)cc2)c(O)cc1O [Compound 18, 5-[1-(3-methoxy-propyl)-1H-tetrazol-5-yl]-4′-trifluoromethyl-biphenyl-2,4-diol] | > 50
COc1ccc(C(C)C)cc1-c1cc(-c2nnnn2C2CCN(C(=O)OC(C)(C)C)C2)c(O)cc1O (centres unmarked) [Compound 42, 3-[5-(4,6-Dihydroxy-5′-isopropyl-2′-methoxy-biphenyl-3-yl)-tetrazol-1-yl]-pyrrolidine-1-carboxylic Acid Tert-Butyl Ester] | 10 to 50
COCCCn1nnnc1-c1cc(-c2cccc(OC(F)(F)F)c2)c(O)cc1O [Compound 17] | 1 to 10
COCCCn1nnnc1-c1cc(-c2cccc(C)c2)c(O)cc1O [Compound 8, 5-[1-(3-Methoxy-propyl)-1H-tetrazol-5-yl]-3′-methyl-biphenyl-2,4-diol] | 10 to 50
COCCn1nnnc1-c1cc(-c2cccc(OC(F)(F)F)c2)c(O)cc1O [Compound 11] | > 50
CCCCn1nnnc1-c1cc(-c2cccc(C(=O)NCCc3cccc(OC)c3)c2)c(O)cc1O [Compound 57] | > 50

Molecule | IC50 [µM]
CCS(=O)(=O)N1CCN(C(=O)c2cccc(-c3cc(-c4nnnn4CCCOC)c(O)cc3O)c2)CC1 [Compound 66, {2′,4′-Dihydroxy-5′-[1-(3-methoxy-propyl)-1H-tetrazol-5-yl]-biphenyl-3-yl}-(4-ethanesulfonyl-piperazin-1-yl)-methanone] | > 50
COCCn1nnnc1-c1cc(-c2cccc(C(F)(F)F)c2)c(O)cc1O [Compound 12] | > 50
COCCCn1nnnc1-c1cc(-c2cccc(C(=O)NCCCN(C)C)c2)c(O)cc1O [Compound 65] | > 50
CCCCn1nnnc1-c1cc(-c2cccc(C(=O)OC)c2)c(O)cc1O [Compound 22] | 10 to 50
COc1ccc(C(C)C)cc1-c1cc(-c2nnnn2C2CCN(C(=O)OC(C)(C)C)CC2)c(O)cc1O [Compound 43] | 10 to 50
COCCCn1nnnc1-c1cc(-c2ccccc2C(F)(F)F)c(O)cc1O [Compound 13, 5-[1-(3-Methoxy-propyl)-1H-tetrazol-5-yl]-2′-trifluoromethyl-biphenyl-2,4-diol] | > 50
CCCCn1nnnc1-c1cc(-c2cccc(C(=O)NCCC3CCCN3C)c2)c(O)cc1O (centres unmarked) [Compound 59] | > 50
CCOc1cccc(-c2cc(-c3nnnn3CCCOC)c(O)cc2O)c1 [Compound 77, 3′-Ethoxy-5-[1-(3-methoxy-propyl)-1H-tetrazol-5-yl]-biphenyl-2,4-diol] | 10 to 50
COCCCn1nnnc1-c1cc(-c2cccc(C(=O)N(C)CCN(C)C)c2)c(O)cc1O [Compound 63] | > 50
CCN1CCC(n2nnnc2-c2cc(-c3cc(C(C)C)ccc3OC)c(O)cc2O)CC1 [Compound 38] | 1 to 10
CCCCn1nnnc1-c1cc(-c2cccc(C(=O)NCCCN3CCCC3)c2)c(O)cc1O [Compound 55] | > 50
CCCCn1nnnc1-c1cc(-c2cccc(C(=O)N3CCN(CCCN4CCOCC4)CC3)c2)c(O)cc1O [Compound 56, [5′-(1-Butyl-1H-tetrazol-5-yl)-2′,4′-dihydroxy-biphenyl-3-yl]-[4-(3-morpholin-4-ylpropyl)-piperazin-1-yl]-methanone] | > 50
COCCCn1nnnc1-c1cc(-c2cccc(C(=O)N3CCN(CCN4CCCC4)CC3)c2)c(O)cc1O [Compound 72, {2′,4′-Dihydroxy-5′-[1-(3-methoxy-propyl)-1H-tetrazol-5-yl]-biphenyl-3-yl}-[4-(2-pyrrolidin-1-yl-ethyl)-piperazin-1-yl]-methanone] | > 50
CCCCn1nnnc1-c1cc(-c2cccc(C(=O)NC(C)COC)c2)c(O)cc1O (centres unmarked) [Compound 48, 5′-(1-Butyl-1H-tetrazol-5-yl)-2′,4′-dihydroxy-biphenyl-3-carboxylic acid (2-methoxy-1-methyl-ethyl)-amide] | > 50
COCCCn1nnnc1-c1cc(-c2ccc(F)cc2F)c(O)cc1O [Compound 84] | > 50
COCCCn1nnnc1-c1cc(-c2cccc(C(=O)N(C)CCCN(C)C)c2)c(O)cc1O [Compound 64, 2′,4′-Dihydroxy-5′-[1-(3-methoxy-propyl)-1H-tetrazol-5-yl]-biphenyl-3-carboxylic Acid (3-dimethylamino-propyl)-methyl-amide] | > 50
COCCCn1nnnc1-c1cc(-c2ccc(Oc3ccccc3)cc2)c(O)cc1O [Compound 74, 5-[1-(3-Methoxy-propyl)-1H-tetrazol-5-yl]-4′-phenoxy-biphenyl-2,4-diol] | > 50
COCCCn1nnnc1-c1cc(-c2ccc(OC(F)(F)F)cc2)c(O)cc1O [Compound 73] | > 50
CCCCn1nnnc1-c1cc(-c2cccc(C(=O)N3CCN(S(=O)(=O)CC)CC3)c2)c(O)cc1O [Compound 53, [5′-(1-Butyl-1H-tetrazol-5-yl)-2′,4′-dihydroxy-biphenyl-3-yl]-(4-ethanesulfonyl-piperazin-1-yl)-methanone] | > 50
5′-(1-Butyl-1H-tetrazol-5-yl-2′,4′-dihydroxy-biphenyl-3-carboxylic acid (3-dimethylamino-propyl)-methyl-amide [Compound 52] | > 50
CCNC(=O)N1CCC(n2nnnc2-c2cc(-c3cc(C(C)C)ccc3OC)c(O)cc2O)CC1 [Compound 39] | 1 to 10
CCc1ccccc1-c1cc(-c2nnnn2CCCOC)c(O)cc1O [Compound 75, 2′-Ethyl-5-[1-(3-methoxy-propyl)-1H-tetrazol-5-yl]-biphenyl-2,4-diol] | > 50
CCCCn1nnnc1-c1cc(-c2cccc(C(=O)NCCN(C)C)c2)c(O)cc1O [Compound 58] | > 50
CCCCn1nnnc1-c1cc(-c2cccc(C(=O)NCCCN3CCOCC3)c2)c(O)cc1O [Compound 54] | > 50
CCCCn1nnnc1-c1cc(-c2cccc(C(=O)NC(C)CN(C)C)c2)c(O)cc1O (centres unmarked) [Compound 60, 5′-(1-Butyl-1H-tetrazol-5-yl)-2′,4′-dihydroxy-biphenyl-3-carboxylic acid (2-dimethylamino-1-methyl-ethyl)-amide] | > 50
